Measured values from patent US12139492B2 (Endotarget Inc., priority 2021, dated 2024).
Read-outs that look alike come from different tables or passages of the source.

Assays:
[1] = molecular target: BTK (Homo sapiens, UniProt Q06187); experiment: Degradation of BTK protein in Namalwa cells (Western blot; DC50, Dmax); conditions: for DC50: cell line not given; for degradation of BTK protein: Namalwa B lymphocyte cells, various concentrations, 24 hours, Western blot
[2] = test system: Mino cells; experiment: Antiproliferative effect, MTS cell viability assay, Mino cells; type: cell-based; conditions: Homo sapiens, MINO, Mino mantle cell lymphoma cells; read-out: IC50 (anti-proliferation) Mino cells
Method in brief: (§1)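 Tested at six concentrations (0 to 10 μM in tenfold steps), 72 h; viability by MTS, A490.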

[3] = test system: JeKo-1 cells; experiment: Antiproliferative effect, MTS cell viability assay, JeKo-1 cells; type: cell-based; conditions: Homo sapiens; JeKo-1 mantle cell lymphoma cells; read-out: IC50 (anti-proliferation) JeKO-1 cells
Method in brief: as §1

[4] = read-out: DC50 (BTK degradation), concentration giving 50% reduction of BTK expression level
[5] = read-out: Dmax (BTK degradation)

BTK, sequence (Q06187 whole entry): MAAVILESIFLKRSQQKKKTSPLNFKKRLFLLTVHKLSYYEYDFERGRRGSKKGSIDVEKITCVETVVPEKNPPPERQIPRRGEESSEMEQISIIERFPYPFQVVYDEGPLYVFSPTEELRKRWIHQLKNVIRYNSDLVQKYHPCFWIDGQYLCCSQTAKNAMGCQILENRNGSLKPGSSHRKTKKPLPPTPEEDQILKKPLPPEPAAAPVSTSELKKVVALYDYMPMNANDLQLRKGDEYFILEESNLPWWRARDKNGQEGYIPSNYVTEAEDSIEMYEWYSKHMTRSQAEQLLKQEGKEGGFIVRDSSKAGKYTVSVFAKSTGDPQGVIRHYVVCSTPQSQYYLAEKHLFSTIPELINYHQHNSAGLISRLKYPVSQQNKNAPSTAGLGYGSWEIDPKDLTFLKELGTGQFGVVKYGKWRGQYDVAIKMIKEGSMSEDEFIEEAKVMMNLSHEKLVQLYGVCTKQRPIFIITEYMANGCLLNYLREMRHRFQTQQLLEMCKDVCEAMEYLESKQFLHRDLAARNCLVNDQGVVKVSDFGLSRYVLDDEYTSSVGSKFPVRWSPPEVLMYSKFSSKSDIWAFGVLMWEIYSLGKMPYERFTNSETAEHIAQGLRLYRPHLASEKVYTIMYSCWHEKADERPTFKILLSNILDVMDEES

DC50 [1, 4] | Dmax [1, 5] | Dmax [1] | DC50 ([1]; BTK degradation) | degradation of BTK protein [1] | SMILES | IC50 [2] | IC50 [3]
10 to 50 nM | > 90% |  |  |  | Nc1ncnc2c1c(-c1ccc(Oc3ccccc3)cc1)nn2C1CCN(CCCN2CCC(CN3CCN(c4ccc(N5CCC(=O)NC5=O)cc4)CC3)C2)CC1 (centres unmarked) [Compound 551, 1-(4-(4-((1-(3-(4-(4-amino-3-(4-phenoxyphenyl)-1H-pyrazolo[3,4-d]pyrimidin-1-yl)piperin-1-yl)propyl)pyrrolidin-3-yl)methyl)piperazin-1-yl)phenyl)dihydropyrimidine-2,4(1H,3H)-dione] | < 1000 nM | < 1000 nM
10 to 50 nM | > 90% |  |  |  | Nc1ncnc2c1c(-c1ccc(Oc3ccccc3)cc1)nn2C1CCN(C2CCN(CCCN3CCN(c4ccc(N5CCC(=O)NC5=O)cc4)CC3)CC2)CC1 [Compound 572, 1-(4-(4-(3-(4-(4-amino-3-(4-phenoxyphenyl)-1H-pyrazolo[3,4-d]pyrimidin-1-yl)-[1,4′-bipiperidin]-1′-yl)propyl)piperazin-1-yl)phenyl)dihydropyrimidine-2,4(1H,3H)-dione] | < 1000 nM | < 1000 nM
< 10 nM | > 90% |  |  |  | NC(=O)c1c(-c2ccc(Oc3ccccc3)cc2)nn2c1NCC[C@H]2C1CCN(CC2CCN(C(=O)N3CCC(N4CCN(c5ccc6c(c5)CN(C5CCC(=O)NC5=O)C6=O)CC4)CC3)CC2)CC1 (stereo partly drawn) [Compound 404, (7S)-7-(1-((1-(4-(4-(2-(2,6-dioxopiperidin-3-yl)-1-oxoisoindolin-5-yl)piperazin-1-yl)piperidine-1-carbonyl)piperidin-4-yl)methyl)piperidin-4-yl)-2-(4-phenoxyphenyl)-4,5,6,7-tetrahydropyrazolo[1,5-a]pyrimidine-3-carboxamide] | < 1000 nM | < 1000 nM
 |  | > 90% | < 10 nM |  | NC(=O)c1c(-c2ccc(Oc3ccccc3)cc2)nn2c1NCCC2C1CCN(CC2CCN(C(=O)N3CCC(N4CCC(c5ccc6c(c5)CN(C5CCC(=O)NC5=O)C6=O)CC4)CC3)CC2)CC1 (centres unmarked) [Compound 368, 7-(1-((1-(4-(2-(2,6-dioxopiperidin-3-yl)-1-oxoisoindolin-5-yl)-[1,4′-bipiperidine]-1′-carbonyl)piperidin-4-yl)methyl)piperidin-4-yl)-2-(4-phenoxyphenyl)-4,5,6,7-tetrahydropyrazolo[1,5-a]pyrimidine-3-carboxamide] | < 1000 nM | 1000 to 10000 nM
< 10 nM | > 90% |  |  |  | Nc1ncnc2c1c(-c1ccc(Oc3ccccc3)cc1)nn2C1CCN(C2CCN(CCN3CCN(c4ccc(N5CCC(=O)NC5=O)cc4)CC3)C2)CC1 (centres unmarked) [Compound 575, 1-(4-(4-(2-(3-(4-(4-amino-3-(4-phenoxyphenyl)-1H-pyrazolo[3,4-d]pyrimidin-1-yl)piperidin-1-yl)pyrrolidin-1-yl)ethyl)piperazin-1-yl)phenyl)dihydropyrimidine-2,4(1H,3H)-dione] | 1000 to 10000 nM | 1000 to 10000 nM
 |  | > 75% | > 50 nM |  | NC(=O)c1c(-c2ccc(Oc3ccccc3)cc2)nn2c1NCCC2C1CCN(CC2CCN(CCC3CCN(c4ccc5c(c4)C(=O)N(C4CCC(=O)NC4=O)C5=O)CC3)CC2)CC1 (centres unmarked) [Compound 317, 7-(1-((1-(2-(1-(2-(2,6-dioxopiperidin-3-yl)-1,3-dioxoisoindolin-5-yl)piperidin-4-yl)ethyl)piperidin-4-yl)methyl)piperidin-4-yl)-2-(4-phenoxyphenyl)-4,5,6,7-tetrahydropyrazolo[1,5-a]pyrimidine-3-carboxamide] | 1000 to 10000 nM | > 10000 nM
> 50 nM | > 90% |  |  | dose-dependent degradation | Nc1ncnc2c1c(-c1ccc(Oc3ccccc3)cc1)nn2C1CCN(CC2CCN(CC3CN(CC4CN(c5ccc6c(c5)C(=O)N(C5CCC(=O)NC5=O)C6=O)C4)C3)C2)CC1 (centres unmarked) [Compound 427, 5-(3-((3-((3-((4-(4-amino-3-(4-phenoxyphenyl)-1H-pyrazolo(3,4-d)pyrimidin-1-yl)piperidin-1-yl)methyl)pyrrolidin-1-yl)methyl)azetidin-1-yl)methyl)azetidin-1-yl)-2-(2,6-dioxopiperidin-3-yl)isoindoline-1,3-dione] | 1000 to 10000 nM | 1000 to 10000 nM
 |  | > 90% | < 10 nM |  | NC(=O)c1c(-c2ccc(Oc3ccccc3)cc2)nn2c1NCCC2C1CCN(C2CCN(C(=O)N3CCC(CN4CCN(c5ccc6c(c5)CN(C5CCC(=O)NC5=O)C6=O)CC4)CC3)CC2)CC1 (centres unmarked) [Compound 350, 7-(1′-(4-((4-(2-(2,6-dioxopiperidin-3-yl)-1-oxoisoindolin-5-yl)piperazin-1-yl)methyl)piperidine-1-carbonyl)-[1,4′-bipiperidin]-4-yl)-2-(4-phenoxyphenyl)-4,5,6,7-tetrahydropyrazolo[1,5-a]pyrimidine-3-carboxamide] | < 1000 nM | 1000 to 10000 nM
< 10 nM | > 90% |  |  |  | Nc1ncnc2c1c(-c1ccc(Oc3ccccc3)cc1)nn2C1CCN(C(=O)N2CC(N3CCN(c4ccc5c(c4)CN([C@@H]4CCC(=O)NC4=O)C5=O)CC3)C2)CC1 [Compound 486, (R)-3-(5-(4-(1-(4-(4-amino-3-(4-phenoxyphenyl)-1H-pyrazolo[3,4-d]pyrimidin-1-yl)piperidine-1-carbonyl)azetidin-3-yl)piperazin-1-yl)-1-oxoisoindolin-2-yl)piperidine-2,6-dione] | < 1000 nM | < 1000 nM
 |  | > 90% | < 10 nM |  | NC(=O)c1c(-c2ccc(Oc3ccccc3)cc2)nn2c1NCCC2C1CCN(C(=O)N2CCC(CN3CCN(c4ccc5c(c4)CN(C4CCC(=O)NC4=O)C5=O)CC3)CC2)CC1 (centres unmarked) [Compound 276, 7-(1-(4-((4-(2-(2,6-dioxopiperidin-3-yl)-1-oxoisoindolin-5-yl)piperazin-1-yl)methyl)piperidine-1-carbonyl)piperidin-4-yl)-2-(4-phenoxyphenyl)-4,5,6,7-tetrahydropyrazolo[1,5-a]pyrimidine-3-carboxamide] | < 1000 nM | < 1000 nM
10 to 50 nM | > 75% |  |  |  | Nc1ncnc2c1c(-c1ccc(Oc3ccccc3)cc1)nn2[C@@H]1CCCN(CCNC(=O)C2CCN(c3ccc4c(c3)C(=O)N(C3CCC(=O)NC3=O)C4=O)CC2)C1 (stereo partly drawn) [Compound 527, N-(2-((R)-3-(4-amino-3-(4-phenoxyphenyl)-1H-pyrazolo[3,4-d]pyrimidin-1-yl)piperidin-1-yl)ethyl)-1-(2-(2,6-dioxopiperidin-3-yl)-1,3-dioxoisoindolin-5-yl)piperidine-4-carboxamide] | < 1000 nM | 1000 to 10000 nM
 |  | > 90% | 10 to 50 nM |  | Nc1ncnc2c1c(-c1ccc(Oc3ccccc3)cc1)nn2C1CCN(C2CCN(C(=O)N3CCC(CCCN4CCC(c5ccc6c(c5)CN(C5CCC(=O)NC5=O)C6=O)CC4)CC3)CC2)CC1 (centres unmarked) [Compound 268, 3-(5-(1-(3-(1-(4-(4-amino-3-(4-phenoxyphenyl)-1H-pyrazolo[3,4-d]pyrimidin-1-yl)-[1,4′-bipiperidine]-1′-carbonyl)piperidin-4-yl)propyl)piperidin-4-yl)-1-oxoisoindolin-2-yl)piperidine-2,6-dione] | < 1000 nM | 1000 to 10000 nM
10 to 50 nM | > 90% |  |  | dose-dependent degradation | Nc1ncnc2c1c(-c1ccc(Oc3ccccc3)cc1)nn2C1CCN(C2CCN(CC3CN(CC4CN(c5ccc6c(c5)C(=O)N(C5CCC(=O)NC5=O)C6=O)C4)C3)CC2)CC1 (centres unmarked) [Compound 437] | 1000 to 10000 nM | 1000 to 10000 nM
10 to 50 nM | > 90% |  |  |  | Nc1ncnc2c1c(-c1ccc(Oc3ccccc3)cc1)nn2C1CCN(C[C@H]2CCN(C[C@H]3CCN(c4ccc5c(c4)C(=O)N(C4CCC(=O)NC4=O)C5=O)C3)C2)CC1 (stereo partly drawn) [Compound 447a, 5-((R)-3-(((R)-3-((4-(4-amino-3-(4-phenoxyphenyl)-1H-pyrazolo[3,4-d]pyrimidin-1-yl)piperidin-1-yl)methyl)pyrrolidin-1-yl)methyl)pyrrolidin-1-yl)-2-(2,6-dioxopiperidin-3-yl)isoindoline-1,3-dione] | 1000 to 10000 nM | 1000 to 10000 nM
10 to 50 nM | > 90% |  |  | dose-dependent degradation | Nc1ncnc2c1c(-c1ccc(Oc3ccccc3)cc1)nn2C1CCN(CC2CCN(CC3CCN(c4ccc5c(c4)C(=O)N(C4CCC(=O)NC4=O)C5=O)C3)C2)CC1 (centres unmarked) [Compound 447, 5-(3-((3-((4-(4-amino-3-(4-phenoxyphenyl)-1H-pyrazolo(3,4-d)pyrimidin-1-yl)piperidin-1-yl)methyl)pyrrolidin-1-yl)methyl)pyrrolidin-1-yl)-2-(2,6-dioxopiperidin-3-yl)isoindoline-1,3-dione] | 1000 to 10000 nM | 1000 to 10000 nM
 |  | > 90% | < 10 nM |  | Nc1ncnc2c1c(-c1ccc(Oc3ccccc3)cc1)nn2C1CCN(C2CCN(C(=O)N3CCC(CC4CCN(c5ccc6c(c5)CN(C5CCC(=O)NC5=O)C6=O)CC4)CC3)CC2)CC1 (centres unmarked) [Compound 238, 3-(5-(4-((1-(4-(4-amino-3-(4-phenoxyphenyl)-1H-pyrazolo[3,4-d]pyrimidin-1-yl)-[1,4′-bipiperidine]-1′-carbonyl)piperidin-4-yl)methyl)piperidin-1-yl)-1-oxoisoindolin-2-yl)piperidine-2,6-dione] | < 1000 nM | 1000 to 10000 nM
< 10 nM | > 90% |  |  |  | Nc1ncnc2c1c(-c1ccc(Oc3ccccc3)cc1)nn2C1CCN(CCN2CC(CN3CCN(c4ccc5c(c4)C(=O)N(C4CCC(=O)NC4=O)C5=O)CC3)C2)CC1 (centres unmarked) [Compound 461, 5-(4-((1-(2-(4-(4-amino-3-(4-phenoxyphenyl)-1H-pyrazolo[3,4-d]pyrimidin-1-yl)piperidin-1-yl)ethyl)azetidin-3-yl)methyl)piperazin-1-yl)-2-(2,6-dioxopiperidin-3-yl)isoindoline-1,3-dione] | < 1000 nM | < 1000 nM
